Test results as given in ChEMBL document CHEMBL1201862, “PubChem BioAssay data set” (2004).
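Where inhibition never reached the appropriate level, the endpoint shown equals the highest concentration tested. Otherwise, values were interpolated linearly from a five-concentration, 48-hour dose response in 96-well plates. At the GI50, growth is halved.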 Activity calls are given as the source filed them. No stated cut-off is given here; in the data, active = GI50 up to about 1.1 µM and inactive = higher.

Columns and labels:
Experiment in all cases: inhibition of tumour cell growth, NCI panel, 48 h
[1] = system: 786-0
[2] = system: CAKI-1
[3] = system: HCT-116
[4] = system: HL-60
[5] = system: HOP-92
[6] = system: Hs-578T
[7] = system: KM12
[8] = system: NCI-H226
[9] = system: NCI-H23
[10] = system: NCI/ADR-RES
[11] = system: OVCAR-3
[12] = system: RPMI-8226
[13] = system: SF-539
[14] = system: SK-MEL-28
[15] = system: SNB-19
[16] = system: T47D
[17] = system: U-251
[18] = system: UO-31
[19] = system: RXF 393

Measured: GI50

CN(C)c1ccc(/C=N/n2c(-c3ccccc3)nc3ccccc3c2=O)cc1
inactive: [1] > 100 µM | [2] 29.7 µM | [3] 50.6 µM | [4] 40 µM | [5] 90.8 µM | [6] 20 µM | [7] 24.8 µM | [8] 71.6 µM | [9] 28.3 µM | [10] 21.8 µM | [11] > 100 µM | [12] 20.4 µM | [13] > 100 µM | [14] > 100 µM | [15] 40.8 µM | [16] 15 µM | [17] 63.4 µM

COC(=O)CN(CC(=O)NCCCBr)C1CCCCC1N(CC(=O)OC)CC(=O)OC (stereo unspecified)
inactive: [1] > 100 µM | [2] > 100 µM | [3] > 100 µM | [4] > 100 µM | [5] 77.3 µM | [6] 53.7 µM | [7] > 100 µM | [8] > 100 µM | [9] > 100 µM | [10] > 100 µM | [11] > 100 µM | [12] > 100 µM | [13] > 100 µM | [14] > 100 µM | [15] > 100 µM | [16] > 100 µM | [17] > 100 µM | [18] 84.7 µM

CC#CC#C/C=C1/O[C@]2(CCC(OC(=O)CC(C)C)CO2)[C@@H]2O[C@H]12 (stereo partly specified)
inactive: [1] 20.9 µM | [2] 18.2 µM | [3] 15.4 µM | [4] 19.7 µM | [5] 27.4 µM | [6] 52.5 µM | [7] 27 µM | [9] 24.5 µM | [10] 28.4 µM | [11] 21.5 µM | [12] 19.7 µM | [19] 21.7 µM | [15] 61.7 µM | [16] 20.5 µM | [17] 21.7 µM | [18] 18.9 µM

N#Cc1ccccc1NC(=O)C(O)C(O)C(O)C(O)C=O (stereo unspecified)
inactive: [1] > 100 µM | [2] > 100 µM | [3] > 100 µM | [4] > 100 µM | [5] > 100 µM | [6] > 100 µM | [7] > 100 µM | [8] > 100 µM | [9] > 100 µM | [10] > 100 µM | [11] > 100 µM | [19] > 100 µM | [13] > 100 µM | [14] > 100 µM | [15] > 100 µM | [16] > 100 µM | [17] > 100 µM | [18] > 100 µM

O=S1(=O)N=C(SCc2ccccc2)N(c2ccccc2)c2ccncc21
inactive: [1] 40.8 µM | [2] 39.2 µM | [3] 35.3 µM | [4] 29.6 µM | [5] 22.2 µM | [6] 31.7 µM | [7] 41 µM | [8] 37.6 µM | [9] 29.6 µM | [10] 21.7 µM | [11] 31.9 µM | [19] 26.6 µM | [13] 66.2 µM | [14] 91.2 µM | [15] 99.8 µM | [16] 29.2 µM | [17] 39.2 µM | [18] 3.83 µM

CC(C)=CCC[C@@H](C)C1=C(O)C(=O)C(C)=C(Nc2ccccc2F)C1=O
inactive: [1] 21.3 µM | [2] 16.1 µM | [3] 13.3 µM | [4] 2.28 µM | [5] 21.1 µM | [6] 9.62 µM | [7] 15.5 µM | [8] 17.9 µM | [9] 12.7 µM | [10] 3.49 µM | [11] 4.1 µM | [12] 8.26 µM | [19] 12.7 µM | [14] 38.6 µM | [15] 15.2 µM | [16] 14.6 µM | [17] 9.33 µM | [18] 12.9 µM

N=C(N)N/N=C(\c1ccc(Cl)cc1)C1CC1
inactive: [1] 16.9 µM | [2] 39 µM | [3] 16 µM | [5] 22.3 µM | [6] 25 µM | [7] 18.5 µM | [8] 16.3 µM | [9] 27.1 µM | [10] 25.4 µM | [11] 19.4 µM | [12] 18.5 µM | [19] 33.9 µM | [13] 17.2 µM | [14] 19.3 µM | [15] 29 µM | [16] 19.5 µM | [17] 14.2 µM | [18] 24.6 µM

CSC(SC)=C1CC(=O)Nc2ccccc2C1=O
inactive: [1] 45.6 µM | [2] 34.1 µM | [3] > 100 µM | [4] 27.7 µM | [5] 22.2 µM | [6] 63.7 µM | [7] > 100 µM | [8] > 100 µM | [9] 29.9 µM | [10] > 100 µM | [11] 45 µM | [19] 18.6 µM | [13] 58.7 µM | [14] 36.8 µM | [15] > 100 µM | [16] 29.9 µM | [17] 40.3 µM | [18] 55.1 µM
